# Patent US20150133341A1, “Intra-Operative Cancer Diagnosis Based on a Hyperpolarized Marker” (ALBEDA INNOVATIONS APS, priority 2012, published 2015)
# Structures can show the parent of a compound that is named as a salt. Where two headings read alike, the source gives them in different places. Marks after values point to notes of the source that are not given here.
# Key:
# [1] = tested on: isolated CE-1 enzyme from porcine liver; assay: CE-1 activity on short chain esters, 1H NMR; format: biochemical; conditions: for k: 26 μmol substrate, conversion over 60 min; for faster converted than ethyl acetate: vs ethyl acetate
# Text: To measure almost exclusively the contribution of carboxyl esterase activity from the CE-2 isoform, human breast cancer cells (MCF-7) were employed. These cells are known from literature to express CE-2 but not to express CE-1 (Byun et al, 2008, Cancer letters 266:238-48). A group of esters was investigated as substrates for CE-1, which contained different structural features. These consisted of esters of un-substituted acids (examples are ethyl acetate, ethyl butyrate, methyl butyrate), esters of acids substituted on C2 (examples are ethyl lactate and ethyl 2-acetoxy propanoate), esters of acids substituted on C3 (examples are ethyl 3-hydroxy butyrate and ethyl 3-acetoxy butanoate), esters of ring closed acids (example ethyl pyroglutamate), esters of di-acids (examples are diethyl succinate and dimethyl succinate), esters of tri-acids (example triethyl citrate), ethyl esters of beta-keto acids (example ethyl acetoacetate). Also esters with large alcohol groups and small acid groups were investigated. In this group, the acid part of the molecule was always acetate and different structural properties of the alcohol were investigated. These consisted of esters of un-substituted alcohols (examples ethyl acetate and butyl acetate), esters of branched chain alcohols (examples t-butyl acetate, ethyl 3-acetoxy butanoate and 2-acetoxy propionate), esters of aromatic alcohols (example benzyl acetate), esters of diols (example ethyleneglycol diacetate), esters of triols (example triacetin). […] Similarly, a group of esters which contained different structural features was investigated as substrates for CE-2. CE-2 substrates are described in the literature to consist of a small acid group and a larger alcohol group. All included esters were acetate esters (i.e. esters of acetic acid) in the interest of keeping the acid moiety the smallest possible. The acetate esters measured for CE-2 activity were therefore the same as those measured in the second group of possible substrates for CE-1.
# The CE-1 experiments were performed with commercially available CE-1 from porcine liver. Individual samples of the substrates were all prepared the following way: 26 μmol was weighted in an eppendorf tube. 550 μl deuterated phosphate buffer (200 mM, pH 7.5) was added and the substrate was brought into solution by whirl mixing. The solution was transferred to a 5 mm NMR tube and inserted in the spectrometer at 37° C. A reference experiment was acquired on the substrate solution without enzyme after which 10 μl of an esterase stock solution (37 U/ml in deuterated phosphate buffer) was added in the top of the tube. The sample was mixed and returned to the spectrometer. A series of thermal 1D ^1H NMR experiments were recorded every 5 min for 60 min. The data were analysed with MNOVA software and measured as percentage conversion of substrate calculated to account for the amount of substrate converted over 60 min. The numbers are given in μmol/min.
# [2] = target: T1, CE-2 in lysed human breast cancer cells (MCF-7) (Homo sapiens, UniProt O00748); assay: CE-2 activity on acetate esters in lysed MCF-7 cells, 1H NMR; format: biochemical; conditions: for k: 5 million lysed MCF-7 cells, 37° C., 1 hour; for hydrolysis by CE-2, in words: lysed MCF-7 cells
# T1 construct: endogenous in cells; host or cells: MCF-7 (sonicated lysate)
# T1 sequence (O00748 27-559): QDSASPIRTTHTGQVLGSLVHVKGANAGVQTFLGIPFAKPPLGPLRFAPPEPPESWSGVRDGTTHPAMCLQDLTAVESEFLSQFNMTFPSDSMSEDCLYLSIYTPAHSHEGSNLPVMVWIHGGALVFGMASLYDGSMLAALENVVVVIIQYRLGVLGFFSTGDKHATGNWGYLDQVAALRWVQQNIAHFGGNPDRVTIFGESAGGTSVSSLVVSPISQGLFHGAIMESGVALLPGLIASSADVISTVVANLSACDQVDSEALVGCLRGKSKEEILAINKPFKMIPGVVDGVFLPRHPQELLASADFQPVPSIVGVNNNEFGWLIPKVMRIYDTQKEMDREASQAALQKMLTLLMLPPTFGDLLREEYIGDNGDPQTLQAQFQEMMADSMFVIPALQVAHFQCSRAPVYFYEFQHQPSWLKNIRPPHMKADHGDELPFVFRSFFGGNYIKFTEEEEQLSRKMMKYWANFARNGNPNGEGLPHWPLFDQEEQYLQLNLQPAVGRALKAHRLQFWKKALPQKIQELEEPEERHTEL
# Procedure: Different classes of short chain esters, fulfilling the requirements for the hyperpolarization technique (stable, soluble, low molecular weight compounds (<400 Da), were evaluated as substrates for carboxyl esterases with the aim to identify esters as similar or better substrates for carboxyl esterases than 1,3-^13C2 ethyl acetoacetate. In most human cell types, including a wide range of cancer cells and lymphocytes, the activity of carboxyl esterase is dominated by the activities of isoforms 1 and 2 (CE-1 and CE-2). To measure exclusively the hydrolysis of carboxyl esterase from the CE-1 isoform, an isolated enzyme from porcine liver was applied. To measure almost exclusively the contribution of carboxyl esterase activity from the CE-2 isoform, human breast cancer cells (MCF-7) were employed. These cells are known from literature to express CE-2 but not to express CE-1 (Byun et al, 2008, Cancer letters 266:238-48). A group of esters was investigated as substrates for CE-1, which contained different structural features. […] Also esters with large alcohol groups and small acid groups were investigated. In this group, the acid part of the molecule was always acetate and different structural properties of the alcohol were investigated. These consisted of esters of un-substituted alcohols (examples ethyl acetate and butyl acetate), esters of branched chain alcohols (examples t-butyl acetate, ethyl 3-acetoxy butanoate and 2-acetoxy propionate), esters of aromatic alcohols (example benzyl acetate), esters of diols (example ethyleneglycol diacetate), esters of triols (example triacetin). Esters of alpha-keto acids were too unstable to be investigated in this assay. Esters of larger alcohols are not water soluble and therefore not relevant substrates for the purpose of the invention. Similarly, a group of esters which contained different structural features was investigated as substrates for CE-2. CE-2 substrates are described in the literature to consist of a small acid group and a larger alcohol group. All included esters were acetate esters (i.e. esters of acetic acid) in the interest of keeping the acid moiety the smallest possible. The acetate esters measured for CE-2 activity were therefore the same as those measured in the second group of possible substrates for CE-1. The CE-2 experiments were performed with lysed breast cancer cells (MCF-7). MCF-7 cells were grown in RPMI medium with 10% FBS and antibiotics. They were at confluence harvested by trypsination and washed once with 5 ml PBS. They were spun down and resuspended in PBS to a concentration of 20 mill. cells/ml. The cells were hereafter sonicated on ice (50% amplitude, 1 min, 3 sec pulse). 250 μl sonicated cell suspension was mixed with 250 μl 400 mM phosphate buffer pH 7.3. […] The substrate was added (50 μl, 60 mM) and the tube turned for mixing before it was inserted into the spectrometer. An initial spectrum was acquired and the sample was hereafter placed at 37° C. for 1 hour in a water bath. The sample was again inserted into the magnet and a second spectrum was recorded. The data was analysed with MNOVA software and measured as percentage conversion of substrate calculated to account for the amount of substrate converted over 60 min. The numbers are given in μmol/hour.
# [3] = tested on: carboxyl esterase in lysed lymphocytes (B + T cells); assay: Carboxyl esterase activity in cell extract, 1H NMR; format: biochemical, human; conditions: 5 million lysed cells, 37° C.
# Procedure: (§1) The hydrolysis of the substrates was investigated in cell extracts. To test substrates without isotope labelling for carboxyl esterase activity in a cellular background, a ^1H NMR assay was applied. Human breast cancer cells (MCF-7) and human prostate cancer cells (PC-3) were grown in RPMI medium with 10% FBS and antibiotics. They were at confluence harvested by trypsination and washed once with 5 ml PBS. They were spun down and resuspended in PBS to a concentration of 20 mill. cells/ml. The cells were hereafter sonicated on ice (50% amplitude, 1 min, 3 sec pulse). Human lymphocytes were purified from whole blood. Whole blood samples were drawn from healthy volunteer into heparinised venous blood collection tubes (Venosafe vacumtubes from Terumo). For each experiment, the blood was purified freshly: Three and a half 10 mL tubes of blood were pooled in each of four 50 mL Leucosep (Greiner) tubes prepared with 15 mL Histopaque 1077 (Sigma). The Leucosep tubes were spun for 15 min at 800× g at 24 C. The plasma was removed and the white blood cells were transferred to a 50 mL falcon tube by decanting and diluted 1:2 in PBS-Mg—Ca for a total volume of 50 mL. The cells were sedimented by centrifugation at 250×g for 60 min. Diluting with trypan blue and counting in hemocytometer determined the total number of lymphocytes before sedimentation. All cells were viable and the total number of cells in each cell batch was approx. 60 million. The lymphocytes were redissolved to a concentration of 20 million cells/ml. The cells were hereafter sonicated on ice (50% amplitude, 1 min, 3 sec pulse).
# (§2) 250 μl sonicated cell suspension was mixed with 250 μl 400 mM phosphate buffer pH 7.3. This solution was transferred to a 5 mm NMR tube and warmed on a water bath to 37° C. The substrate was added (50 μl, 60 mM) and the tube turned for mixing before it was inserted into the spectrometer. The data was analyzed with MNOVA software and measured as percentage conversion of substrate calculated to account for the amount of substrate converted over 60 min; numbers are given in μmol/hour.
# [4] = tested on: carboxyl esterase in lysed prostate cancer cells (PC-3); assay: Carboxyl esterase activity in cell extract, 1H NMR; format: biochemical, human; conditions: for Metabolic conversion, Prostate cancer cells PC-3: 5 million lysed cells, 37° C.
# Procedure: as §1, §2
# [5] = tested on: carboxyl esterase in lysed breast cancer cells (MCF-7); assay: Carboxyl esterase activity in cell extract, 1H NMR; format: biochemical, human; conditions: for Metabolic conversion, Breast cancer cells MCF-7: 5 million lysed cells, 37° C.
# Procedure: as §1, §2
smiles,measurement,setting,value
CCCC(=O)OCC [Ethylbutyrate],k,[1]; 37° C.,0.12 µmol/min
CCOC(=O)[C@@H]1CCC(=O)N1 [Ethyl pyroglutamate],"conversion by CE-1, in words",[1],only hydrolyzed to a very low extent
same,k,[1]; 37° C.,0.02 µmol/min
same,"conversion by CE-1, in words",[1]; listed as ethyl ester of pyroglutamate,barely detectable
COC(=O)CCC(=O)OC [Dimethyl succinate],k,[1]; 37° C.,0.41 µmol/min
same,faster converted than ethyl acetate,[1],more than ten times faster converted
CC(=O)OCCOC(C)=O [Ethyleneglycol diacetate],k,[2],0.18 µmol/min
same,k,[1]; 37° C.,0.07 µmol/min
CCOC(=O)CC(C)O (stereo not shown) [Ethyl 3-Hydroxybutyrate],k,[1]; 37° C.,0.08 µmol/min
CCOC(=O)C(C)OC(C)=O (stereo not shown) [ethyl 2-acetoxy propanoate],"hydrolysis by CE-2, in words",[2],hydrolysed to a similar extent
same,"k (μmol/min), acetate ester","[1]; hydrolysis of the acetate ester function, 37° C., 60 min",0 µmol/min
same,"k (μmol/min), ethyl ester","[1]; hydrolysis of the ethyl ester function, 37° C., 60 min",0.16 µmol/min
CCCCOC(C)=O [Butyl acetate],k,[2],0.24 µmol/min
same,"hydrolysis by CE-2, in words",[2],hydrolysed to a similar extent
same,k,[1]; 37° C.,0.04 µmol/min
CCOC(=O)CCC(=O)OCC [Diethyl succinate],"Metabolic conversion, Lymphocytes (B + T cells)",[3],0.60 µmol/h
same,"Metabolic conversion, Prostate cancer cells PC-3",[4],0.48 µmol/h
same,"Metabolic conversion, Breast cancer cells MCF-7",[5],0.12 µmol/h
same,"negative contrast, lower than that of EAA","[5]; breast cancer cells relative to lymphocytes, cell number basis",approx. 3 times
same,k,[1]; 37° C.,0.48 µmol/min
same,faster converted than ethyl acetate,[1],more than ten times faster converted
CCOC(=O)C(C)O (stereo not shown) [Ethyl lactate],k,[1]; 37° C.,0.11 µmol/min
CC(=O)OC(C)(C)C [Tert-butyl acetate],k,[1]; 37° C.,0 µmol/min
CCOC(=O)CC(O)(CC(=O)OCC)C(=O)OCC [Triethyl citrate],"conversion by CE-1, in words",[1],only hydrolyzed to a very low extent
same,k,[1]; 37° C.,0 µmol/min
same,"conversion by CE-1, in words",[1]; listed as triethyl citrate,no hydrolysis could be detected
CCOC(C)=O [Ethylacetate],k,[2],0 µmol/min
same,"hydrolysis by CE-2, in words",[2],not hydrolysed
same,"conversion by CE-1, in words",[1],not a good substrate
same,k,[1]; 37° C.,0.03 µmol/min
CCCC(=O)OC [Methylbutyrate],"Metabolic conversion, Lymphocytes (B + T cells)",[3],0.90 µmol/h
same,"Metabolic conversion, Prostate cancer cells PC-3",[4],0.51 µmol/h
same,"Metabolic conversion, Breast cancer cells MCF-7",[5],0.42 µmol/h
same,k,[1]; 37° C.,0.22 µmol/min
CCOC(=O)CC(C)=O [Ethyl acetoacetate],"Metabolic conversion, Lymphocytes (B + T cells)",[3],0.15 µmol/h
same,"Metabolic conversion, Prostate cancer cells PC-3",[4],0* umol/hour
same,"contrast in prostate cancer cells relative to lymphocytes, in words","[4]; cell number basis, FIG. 9B",highest negative contrast
same,"Metabolic conversion, Breast cancer cells MCF-7",[5],0* umol/hour
same,"contrast in breast cancer cells relative to lymphocytes, in words","[5]; cell number basis, FIG. 9A",highest contrast
same,k,[1]; 37° C.,0.12 µmol/min
